Results on seven molecules are retold here after patent publication US7989630B2, “Radiotracers for imaging P-glycoprotein function” (National Institutes of Health Represented by the Secretary …, priority 2008, dated 2011).

For orientation: Ki means the dissociation constant of the complex between target and ligand, obtained from inhibition or displacement.

Where a name gives a salt, the structure may show the parent alone.

Data set [1] relates to P-gp. The conditions noted are these: KO mice, 30 min after [^11C]loperamide i.v. The text has this:
(§1) The most lipophilic radiometabolite was identified by radio-HPLC co-elution as N-desmethylloperamide (dLop) (data not shown).

Data set [2] addresses P-gp (Mus musculus, UniProt P21447). Particulars: 30 min after [^11C]loperamide i.v.
Excerpt: as §1

Data set [3] concerns the target δ opiate receptor (Homo sapiens, UniProt P41143). Nature of the data set: In vitro receptor binding, cloned human δ opiate receptor. From the text: (§2) Detailed binding protocols are available on the web site for The National Institute of Mental Health Psychoactive Drug Screening Program.
The target of data set [4] is μ opiate receptor (Homo sapiens, UniProt P35372). Format: binding.
μ opiate receptor, sequence (P35372 whole entry): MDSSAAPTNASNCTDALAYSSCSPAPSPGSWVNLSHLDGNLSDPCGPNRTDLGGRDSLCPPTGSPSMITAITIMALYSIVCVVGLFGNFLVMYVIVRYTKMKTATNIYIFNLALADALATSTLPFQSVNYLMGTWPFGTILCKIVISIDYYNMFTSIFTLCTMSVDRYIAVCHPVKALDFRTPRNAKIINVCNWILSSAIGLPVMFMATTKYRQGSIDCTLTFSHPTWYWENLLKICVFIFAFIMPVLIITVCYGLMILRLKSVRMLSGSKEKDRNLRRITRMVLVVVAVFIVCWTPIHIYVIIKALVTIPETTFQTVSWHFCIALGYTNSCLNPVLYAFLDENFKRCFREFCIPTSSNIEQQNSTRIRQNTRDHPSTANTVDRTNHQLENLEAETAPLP
Excerpt: as §2

For data set [5], the target named is κ opiate receptor (Homo sapiens, UniProt P41145). In words: biochemical. The conditions noted are these: agonist radiotracer ^3H-U69,593; mean ± SD of four competitive binding experiments.
κ opiate receptor, sequence (P41145 whole entry): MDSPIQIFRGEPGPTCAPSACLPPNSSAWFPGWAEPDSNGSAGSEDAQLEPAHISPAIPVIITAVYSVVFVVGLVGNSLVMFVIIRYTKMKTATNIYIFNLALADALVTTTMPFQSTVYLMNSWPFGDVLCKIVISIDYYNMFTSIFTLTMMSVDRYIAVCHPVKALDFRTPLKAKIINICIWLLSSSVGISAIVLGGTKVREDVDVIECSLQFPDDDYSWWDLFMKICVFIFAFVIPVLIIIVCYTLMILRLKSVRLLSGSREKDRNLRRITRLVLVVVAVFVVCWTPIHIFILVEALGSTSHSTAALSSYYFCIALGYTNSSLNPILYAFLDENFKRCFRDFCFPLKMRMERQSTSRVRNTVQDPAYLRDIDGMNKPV
Excerpt: as §2

The subject of data set [6] is P-gp. In words: PET imaging of [^11C]dLop in monkey brain, baseline and P-gp blocked with DCPQ. Particulars: for increase of regional radioactivity concentration relative to baseline: DCPQ 16 mg/kg i.v. before [^11C]dLop, averaged 25-50 min. As for the experimental part:
Scatter and attenuation correction were applied. Images were analyzed with PMOD. Regions of interest were drawn on coronal slices for eight brain regions (frontal cortex, anterior cingulate, temporal cortex, parietal cortex, hippocampus, occipital cortex, putamen and cerebellum). Activity was decay-corrected to the time of injection and expressed as % SUV. […]
Time-radioactivity data were collected for the same eight brain regions as previously described.

In data set [7] the test system is P-gp.
Protocol: Serial dynamic images were acquired for 100 min, with frames of 6×20 s, 5×1 min, 4×2 min, 3×5 min, 3×10 min, and 2×20 min. […] The small mouse brain causes little scatter and attenuation of the gamma emissions from carbon-11, and, thus, no correction for scatter or attenuation was performed.
In data set [8] the test system is P-gp. Nature of the data set: Monkey brain PET with [^11C]loperamide, baseline and tariquidar (additional experiments).
The subject of data set [9] is P-gp. In words: PET imaging of [^11C]loperamide in monkey brain with P-gp inhibitors. Particulars: for increase of brain activity after [^11C]loperamide: monkey; for increase of peak radioactivity in brain after [^11C]loperamide: inhibitor 8.0 mg/kg i.v. 30 min before radiotracer, monkey (FIG. 3). As for the experimental part:
(§3) For tariquidar only a blockade scan was acquired and compared to the baseline scans of three other animals.
PET images were co-registered to a magnetic resonance image template of a monkey brain. Tomographic images were analyzed with PMOD 2.7 (pixel-wise modeling computer software; PMOD Group, Adliswil, Switzerland). Regions of interest were drawn on coronal slices. Decay-corrected radioactivity was expressed as % standardized uptake value (% SUV), which normalizes for injected activity and body weight. % SUV=(% injected activity per cm3 brain)×(g body weight).

The subject of data set [10] is P-gp. The conditions noted are these: P-gp knockout mice, 30 min after injection of [^11C]loperamide. As for the experimental part: At 30 min after radiotracer injection, anticoagulated blood was removed by cardiac puncture, and the brain was harvested. Plasma was separated from whole blood by centrifugation at 1,800 g for 1 min. […] The homogenates were measured in the y-counter to calculate the % recovery of radioactivity into the acetonitrile extracts. The homogenates were then centrifuged at 10,000×g for 1 min. […] The eluate was monitored with an in-line flow-through Na(Tl) scintillation detector (Bioscan, Washington D.C., USA). Plasma parent and radiometabolite concentrations were calculated as the product of the radio-HPLC fraction of interest and the total plasma radioactivity concentration (dpm/mL).

Data set [11] is described as follows: Arterial plasma parent input function and plasma free fraction, [^11C]loperamide with tariquidar. The data set is classed as in vivo. The conditions noted are these: monkey.
Protocol: Arterial plasma parent input function and plasma free fraction (fl) were determined in monkey.
Data set [12] in a line: Plasma analysis of [^11C]loperamide in nonhuman primates (arterial plasma, radio-HPLC). The conditions noted are these: for time at which parent radiotracer was 50% of total plasma activity: monkey arterial plasma.
Excerpt: as §3

For data set [13], the system named is P-gp. Nature of the data set: P-gp function imaged with [^11C]dLop in monkeys, brain study. Particulars: naloxone 5 mg/kg or loperamide 1 mg/kg at 30 min after [^11C]dLop, P-gp blocked monkeys. The data set is classed as in vivo. As for the experimental part:
Displacement agents were given at 30 min after the radiotracer. A subset of monkeys also had arterial blood sampling (n=5) and [^15O]H2O PET scans (n=4) to measure the concentration of parent radiotracer in plasma and cerebral blood flow, respectively.

Data set [14] has as its system P-gp. The conditions noted are these: DCPQ 16 mg/kg i.v., monkeys. As for the experimental part: The brains of three P-gp KO and three WT mice were scanned for 90 min after administration of [^11C]dLop (˜580 μCi, i.v.). Mice injected with [^11C]dLop (600 μCi, i.v.) were also sacrificed at 30 min, and acetonitrile extracts of blood and brain analyzed with reverse phase HPLC.

For data set [15], the system named is P-gp. The conditions noted are these: Ekins et al. 2002 (DCPQ); Martin et al. 1999 (tariquidar); cited from earlier work.
The nature of data set [16]: Plasma free fraction (fP) by ultracentrifugation. Format: in vitro ADME. The conditions noted are these: fP of [^11C]loperamide, monkey.
Data set [17] deals with CYP3A4. The conditions noted are these: mouse, in vivo. As for the experimental part: Ex vivo studies were performed in wild-type (WT) and P-gp knockout (KO) mice. […] Whole brain and plasma sample radioactivity were measured with γ-counting and HPLC analysis.
Data set [18] relates to P-gp. The conditions noted are these: iv, 8 mg/kg.
Where [19] appears, read: inhibitor 8 mg/kg i.v. 30 min before radiotracer.

P-gp (Mus musculus, UniProt P21447), sequence (P21447 whole entry): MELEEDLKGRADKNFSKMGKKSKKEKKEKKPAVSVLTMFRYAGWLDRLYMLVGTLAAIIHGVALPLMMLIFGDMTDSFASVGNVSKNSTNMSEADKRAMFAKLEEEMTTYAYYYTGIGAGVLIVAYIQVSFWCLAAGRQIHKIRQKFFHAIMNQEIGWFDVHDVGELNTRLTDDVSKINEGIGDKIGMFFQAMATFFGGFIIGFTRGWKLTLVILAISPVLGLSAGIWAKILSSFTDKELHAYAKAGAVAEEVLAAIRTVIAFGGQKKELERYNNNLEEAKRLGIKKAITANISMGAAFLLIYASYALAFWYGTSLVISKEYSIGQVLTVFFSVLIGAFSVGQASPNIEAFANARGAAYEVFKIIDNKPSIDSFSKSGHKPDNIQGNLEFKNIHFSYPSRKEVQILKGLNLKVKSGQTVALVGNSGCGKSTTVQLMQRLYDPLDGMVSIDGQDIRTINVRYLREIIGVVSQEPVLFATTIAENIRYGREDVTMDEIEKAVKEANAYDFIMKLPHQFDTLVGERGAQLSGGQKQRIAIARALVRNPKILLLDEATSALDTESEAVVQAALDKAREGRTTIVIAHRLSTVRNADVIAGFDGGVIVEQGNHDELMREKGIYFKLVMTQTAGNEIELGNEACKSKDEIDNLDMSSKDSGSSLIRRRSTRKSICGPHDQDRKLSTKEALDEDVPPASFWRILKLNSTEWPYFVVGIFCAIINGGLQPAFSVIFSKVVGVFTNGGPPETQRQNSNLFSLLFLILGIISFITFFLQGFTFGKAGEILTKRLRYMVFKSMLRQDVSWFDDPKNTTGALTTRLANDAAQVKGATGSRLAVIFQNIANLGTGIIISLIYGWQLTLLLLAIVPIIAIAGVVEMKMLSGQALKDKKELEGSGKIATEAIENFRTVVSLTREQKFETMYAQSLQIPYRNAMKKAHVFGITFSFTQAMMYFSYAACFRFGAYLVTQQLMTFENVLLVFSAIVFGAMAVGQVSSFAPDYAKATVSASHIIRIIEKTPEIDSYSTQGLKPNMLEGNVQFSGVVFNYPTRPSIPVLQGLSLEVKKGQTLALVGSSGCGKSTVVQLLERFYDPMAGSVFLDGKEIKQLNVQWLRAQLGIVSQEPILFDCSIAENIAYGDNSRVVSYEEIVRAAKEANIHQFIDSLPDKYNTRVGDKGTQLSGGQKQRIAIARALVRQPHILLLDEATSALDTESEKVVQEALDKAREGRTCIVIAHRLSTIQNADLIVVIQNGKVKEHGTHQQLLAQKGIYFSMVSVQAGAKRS
δ opiate receptor, sequence (P41143 whole entry): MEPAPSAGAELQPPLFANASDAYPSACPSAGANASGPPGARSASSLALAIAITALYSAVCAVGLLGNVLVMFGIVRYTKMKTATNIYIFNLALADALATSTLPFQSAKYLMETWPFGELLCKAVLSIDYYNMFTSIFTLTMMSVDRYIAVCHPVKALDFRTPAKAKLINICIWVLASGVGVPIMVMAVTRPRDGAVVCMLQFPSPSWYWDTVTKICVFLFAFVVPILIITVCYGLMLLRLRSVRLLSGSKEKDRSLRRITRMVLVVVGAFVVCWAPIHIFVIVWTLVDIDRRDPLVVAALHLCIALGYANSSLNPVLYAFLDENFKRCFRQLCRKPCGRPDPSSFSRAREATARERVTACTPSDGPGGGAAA

In the case of `CNC(=O)C(CCN1CCC(O)(c2ccc(Cl)cc2)CC1)(c1ccccc1)c1ccccc1` [dLop, 4-(4-(4-Chlorophenyl)-4-hydroxypiperidin-1-yl)-2,2-diphenyl-N-methyl-butanamide], the Brain composition in data set [1] was determined as 21%; in data set [2] (WT mice) it was 4.3%. Moreover, the “concentration increase over control (KO vs WT)” value in data set [2] (brain) is 59 fold. Moreover, the inhibitory constant (Ki) was 328 ± 22 nM in data set [3], 0.56 ± 0.05 nM in [4] and 73 ± 7 nM in [5]. Further, the “effect on washout of radioactivity from brain regions” value in [6] (given 30 min after [^11C]dLop to DCPQ-treated monkey (naloxone 5 mg/kg i.v.; loperamide or dLop 1 mg/kg i.v.)) is “no discernible effect”.

`CN([11CH3])C(=O)C(CCN1CCC(O)(c2ccc(Cl)cc2)CC1)(c1ccccc1)c1ccccc1` [[^11C]loperamide, 4-(4-(4-chlorophenyl)-4-hydroxypiperidin-1-yl)-N,N-dimethyl-2,2-diphenylbutanamide]: the “maximal activity in cerebellum, knockout vs wild type mice (PET)” value in data set [7] (cerebellum) is given as 1.9 fold. Besides, the “maximal activity in forebrain, knockout vs wild type mice (PET)” value in data set [7] (forebrain) is recorded as 2.7 fold. In addition, the “brain activity, knockout vs wild type mice (PET)” value in data set [7] (whole brains) is recorded as “about three-fold”. Moreover, the “brain activity, baseline” value in [8] (baseline) is 40 % standard uptake value. For the same molecule, in [9] (three monkeys, 120 min scan), the “brain uptake under baseline conditions” value is around 40 % SUV. In [10], the “share of brain radioactivity after [^11C]loperamide” value is recorded as around 50%. The “time over which parent plasma composition decreased to 50%” value in [11] (baseline) is 17 min. The “time at which parent radiotracer was 50% of total plasma activity” value is reported as 20 min in data set [12] (after DCPQ 8 mg/kg i.v.); 17 min in data set [12] (baseline); “about 20 min” in data set [12] (baseline, listed as [^11C]Loperamide).

`CN(C)C(=O)C(CCN1CCC(O)(c2ccc(Cl)cc2)CC1)(c1ccccc1)c1ccccc1` [Loperamide, 4-(p-chlorophenyl)-4-hydroxy-N,N-dimethyl-α,α-diphenyl-1-piperidinebutyramide hydrochloride, reference compound] returned a Brain composition in [1] of 63%. Further, in data set [13], the “displacement of the radiotracer from brain” value is reported as “Neither naloxone nor loperamide caused any apparent displacement”.

Take `C=CCN1CC[C@]23c4c5ccc(O)c4O[C@H]2C(=O)CC[C@@]3(O)[C@H]1C5` [naloxone, reference compound]: in data set [13], the “displacement of the radiotracer from brain” value is “Neither naloxone nor loperamide caused any apparent displacement”.

Consider `Cl.Cl.Cl.O[C@@H](COc1cccc2ncccc12)CN1CCN(C2c3ccccc3C3C(c4ccccc42)C3(Cl)Cl)CC1` (stereo partly drawn) [DCPQ, (2R)-anti-5-{3-[4-(10,11-dichloromethanodibenzosuber-5-yl)piperazin-1-yl]-2-hydroxypropoxy}quinoline trihydrochloride], for which the “increase of brain activity after [^11C]loperamide” value is recorded as “minimal effect” in [9] (inhibitor 1 mg/kg i.v. 30 min before radiotracer), around 2.5 fold in [9] (inhibitor 3 mg/kg i.v. 30 min before radiotracer) and around 3.5 fold in data set [9] (setting [19]). Also, the “increase of peak radioactivity in brain after [^11C]loperamide” value in data set [9] is on record as 3.7 fold. For the same molecule, the “increase of brain radioactivity after [^11C]dLop” value in [14] is recorded as “more than 7 fold”. Further, the “affinity to the P-gp” value in data set [15] is listed as 5.3 nM. Further, the “dependence of regional brain radioactivity uptake on dose” value in [6] (DCPQ 0-16 mg/kg i.v. before [^11C]dLop, one monkey) is “increased almost linearly with dose of DCPQ”. For the same molecule, the “ratio of maximal brain radioactivity to that in the baseline experiment” value in data set [6] (DCPQ 8 mg/kg i.v. before [^11C]dLop, monkey) was “about five”. The “effect on uptake of radioactivity into pituitary” value in data set [6] (DCPQ 8 mg/kg or 16 mg/kg i.v. before [^11C]dLop, monkey) was “unaffected”. For the same molecule, the “increase of regional radioactivity concentration relative to baseline” value is recorded as “thirteen-fold” in [6] (cerebellum, monkey) and “seven-fold” in [6] (frontal cortex, monkey). Also, the “Plasma free fraction (fP), P-gp Inhibition” value worked out at 5.7 ± 0.3 in data set [16] (inhibitor 1.0 mg/kg), 1.4 ± 0.5 in data set [16] (inhibitor 3.0 mg/kg) and 4.4 ± 1.4 in data set [16] (inhibitor 8.0 mg/kg). Besides, the “increase in plasma exposure of [^11C]loperamide” value in [12] (DCPQ 8 mg/kg i.v. vs baseline, monkey) was determined as 16%.

In the case of `CC(=O)N1CCN(c2ccc(OCC3COC(Cn4ccnc4)(c4ccc(Cl)cc4Cl)O3)cc2)CC1` (stereo not shown) [ketoconazole], in data set [17], the “decrease of radiometabolite dLop in plasma” value was around 70%, the “increase of [^11C]dLop concentration in plasma” value is listed as around 240% and the “increase of [^11C]loperamide concentration in plasma” value is reported as around 100%.

For `COc1cc2c(cc1OC)CN(CCc1ccc(NC(=O)c3cc(OC)c(OC)cc3NC(=O)c3cnc4ccccc4c3)cc1)CC2` [Tariquidar], the “increase of brain activity after [^11C]loperamide” value is “about 3.7 fold” in data set [8] (tariquidar 8 mg/kg i.v.); “equipotent with DCPQ” in [9] (setting [19]); around 3.5 fold in data set [9] (inhibitor 8 mg/kg i.v. 30 min before radiotracer, listed as tariquidar). Moreover, the “increase of peak radioactivity in brain after [^11C]loperamide” value in data set [9] is on record as 3.7 fold. Moreover, the “affinity to the P-gp” value in data set [15] was 5.1 nM. Moreover, the “brain activity after P-gp inhibition” value in [18] worked out at 146 % standard uptake value. Besides, the “time over which parent plasma composition decreased to 50%” value in data set [11] (rhesus, in vivo) is on record as 20 min. Besides, the “Plasma free fraction (fP), Δ relative to baseline” value in [16] (inhibitor 8.0 mg/kg) is listed as “negligibly affected”.
